Experimental data: paper PMC10746708, “A small molecule iCDM-34 identified by in silico screening suppresses HBV DNA through activation of aryl hydrocarbon receptor” (Cell Death Discovery, 2023)

Experiments:
[1] = test system: promoter of hypoxia inducible factor (HIF); set-up: method as in PMID 34492592; conditions: cited from earlier work
[2] = Liver microsomal stability, mouse; type: in vitro ADME; conditions: mouse liver microsomes
Protocol: Liver microsome stability studies (human, mouse, and rat) were performed at Sumika Chemical Analysis Service (Osaka, Japan) by following an established procedure. A mixture of 1 μM of substrate, 0.5 mg protein/mL of microsomes, and […] β-NADPH was incubated for 30 or 60 min and % remaining substrate was quantitatively measured by LC-MS/MS.

[3] = Metabolic analysis in vivo: blood concentration after injection; conditions: PXB-mice (cDNA-uPA^wild/+/SCID), other: injection, human hepatocyte-chimeric mouse, blood at 5-480 min, n = 1, read-out: t1/2 in blood
HBV genotype C = assay: HBsAg and HBeAg in culture medium by ELISA; type: cell-based; conditions: 30 µM, 7 days
Protocol: PXB cells were plated on 96-well plate and infected with three genome equivalents per cell of HBV C_AT [33], and the medium was changed every 3 or 4 days. […] After treatment with these compounds, cellular DNA, medium DNA, and total RNA were automatically purified as per our previously established protocol. RNA purification of total RNA from cultured cells in the 24-well plate was performed using the RNeasy Mini Kit (Qiagen, Germantown, MD, USA) according to the manufacturer’s instructions.
HBsAg and HBeAg levels in the cell culture medium were measured using Enzygnost HBsAg 6.0 and Enzygnost HBe monoclonal (Siemens, Munich, Germany), respectively, according to the manufacturer’s instructions.

phospho-SAMHD1 = assay: Western blotting of phospho-SAMHD1 in HepG2-NTCP-C4 cells; type: cell-based, human; conditions: 30 μM, 1 day
Protocol: HepG2-NTCP-C4 cells were treated with 30 μM iCDM-17 and iCDM-34 for 1 day. The cells were lyzed with 20 mM TrisHCl pH 7.5 containing 100 mM NaCl, 10 mM EDTA, 1% TritonX-100, 1% Sodium deoxycholate, PhosSTOP (Roche), Complete EDTA free. The lysates were sonicated 30 s and mixed for 1 h with rotation at 4 °C. The lysates were centrifuged at 15,000 rpm for 10 min at 4 °C. The supernatants were analyzed by Western blotting using anti-phospho-SAMHD1 (Thr592) (Cell signaling technology, 89930, 1/1000), anti-SAMHD1 (Cell signaling technology, 49158, 1/1000), and β−actin (Santa Cruz, 1/1000).

JAK/STAT signaling = assay: Western blotting of phospho-STAT1, STAT2, STAT3 in HCV replicon cells; type: cell-based, human; conditions: 30 μM, 24 h
Protocol: HCV replicon cells were treated with 30 μM CDM-3008, iCDM-17, and iCDM-34 for 1 day. The cells were lyzed with 1 x SDS sample buffer containing PhosStop, Complete EDTA free, and 1 mM EDTA. After sonication for 30 s, the lysates were centrifuged at 12,000g for 10 min at 4 °C, and then the supernatants were collected. After reducing the 20 μg of supernatants with 50 mM DTT at 98 °C for 2 min, the samples were separated by SDS-PAGE. STAT1, STAT2, STAT3, pSTAT1, pSTAT2, and pSTAT3 were detected by Western blotting using anti-STAT1 (9175, 1/1000), STAT2 (72604, 1/1000), STAT3 (12640, 1/1000), pSTAT1 (Y701) (7649, 1/1000), pSTAT2 (Y690) (88410, 1/1000), and pSTAT3 (Y705) (9145, 1/1000) antibodies (Cell signaling technology, Massachusetts, USA).

HBV-infected PXB cells = assay: Microarray gene expression analysis of HBV-infected PXB cells; type: cell-based, human
Protocol: PXB cells cultured in 24-well plates were infected with three genome equivalents per cell of HBV C_AT. After 24 days of infection, the cells were treated with 0.3 and 30 µM iCDM-34 and 1,000 IU/mL IFN-α (Sumitomo Dainippon Pharma, Osaka, Japan) for 7 days (n = 3). Total RNA was extracted from the treated cells and subjected to microarray analysis. The raw and normalized data were uploaded to NCBI Gene Expression Omnibus (GSE180646).
To explore the biological interpretation of the transcriptome data, the canonical pathways and upstream causal networks were identified using knowledge-based functional analysis software from Ingenuity Pathways Analysis (IPA; Ingenuity Systems, Redwood City, CA, USA). […] A statistical measure of the IPA analysis is the activation z-score, which can be used to identify likely regulating molecules based on a statistically significant pattern match of up- and downregulation, and to predict the activation state (either activated or inhibited) of a putative regulator [37]. An absolute value of z-score more than 2 was considered significant.

PXB cells = assay: Cell viability of HBV-infected PXB cells (RealTime-Glo MT); type: cell-based; conditions: 3 and 30 µM, with or without 10 nM ETV, 7 days
Protocol: PXB cells (primary cultured human hepatocytes) were purchased from PhoenixBio (Higashi-Hiroshima, Japan) and cultured on collagen type I-coated 96- or 24-well plates in hepatocyte clonal growth medium at 37 °C and 5 % CO2 as previously described. RealTime-Glo MT Cell Viability Assay (Promega) and XTT assay were performed according to a previously established protocol.

[4] = target: interaction between HBx and DNA binding protein 1 (UniProt P03165+Q16531); assay: HBx - DNA binding protein 1 interaction; conditions: data not shown
Chain of interaction between HBx and DNA binding protein 1 (Q16531 whole entry): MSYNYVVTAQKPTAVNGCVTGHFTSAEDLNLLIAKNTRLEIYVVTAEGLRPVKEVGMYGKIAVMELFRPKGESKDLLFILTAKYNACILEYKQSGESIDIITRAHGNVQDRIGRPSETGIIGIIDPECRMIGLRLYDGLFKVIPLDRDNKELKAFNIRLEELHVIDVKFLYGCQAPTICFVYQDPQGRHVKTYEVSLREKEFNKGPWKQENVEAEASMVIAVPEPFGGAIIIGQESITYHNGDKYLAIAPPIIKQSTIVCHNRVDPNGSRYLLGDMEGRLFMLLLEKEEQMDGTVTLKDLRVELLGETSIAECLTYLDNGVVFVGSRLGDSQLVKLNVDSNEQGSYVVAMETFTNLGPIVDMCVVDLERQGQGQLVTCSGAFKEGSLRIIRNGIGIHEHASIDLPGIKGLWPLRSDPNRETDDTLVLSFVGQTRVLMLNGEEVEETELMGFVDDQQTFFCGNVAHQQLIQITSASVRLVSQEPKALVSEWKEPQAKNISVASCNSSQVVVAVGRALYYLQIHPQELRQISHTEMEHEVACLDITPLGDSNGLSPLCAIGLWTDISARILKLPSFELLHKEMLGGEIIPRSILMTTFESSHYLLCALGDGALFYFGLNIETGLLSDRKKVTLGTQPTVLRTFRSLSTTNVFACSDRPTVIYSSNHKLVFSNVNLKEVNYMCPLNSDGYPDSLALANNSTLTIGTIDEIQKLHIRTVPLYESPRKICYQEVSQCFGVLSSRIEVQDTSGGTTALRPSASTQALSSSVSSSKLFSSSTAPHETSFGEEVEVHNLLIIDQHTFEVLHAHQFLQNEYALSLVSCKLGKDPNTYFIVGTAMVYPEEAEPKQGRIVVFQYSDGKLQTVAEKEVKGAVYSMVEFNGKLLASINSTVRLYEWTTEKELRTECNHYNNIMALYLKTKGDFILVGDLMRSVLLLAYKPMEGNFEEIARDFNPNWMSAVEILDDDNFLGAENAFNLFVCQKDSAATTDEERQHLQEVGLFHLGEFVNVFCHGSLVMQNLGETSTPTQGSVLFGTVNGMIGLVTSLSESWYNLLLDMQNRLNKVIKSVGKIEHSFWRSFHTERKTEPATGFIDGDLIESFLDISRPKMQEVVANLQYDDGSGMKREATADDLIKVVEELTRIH
Chain of interaction between HBx and DNA binding protein 1 (P03165 whole entry): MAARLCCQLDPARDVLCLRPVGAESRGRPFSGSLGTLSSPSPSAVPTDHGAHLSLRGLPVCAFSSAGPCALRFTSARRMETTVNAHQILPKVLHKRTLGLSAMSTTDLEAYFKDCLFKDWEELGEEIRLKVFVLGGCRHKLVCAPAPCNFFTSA

AhR signaling pathway = assay: CYP mRNA qPCR in 3D cultured FLC-4 cells; type: cell-based, human; conditions: 1, 10 μM, 1 day
Protocol: The human hepatocellular carcinoma cell line FLC-4 was cultured on micro-space cell culture plates (Elplasia SQ-200, -100, -24, Kuraray, Tokyo, Japan) maintained at 37 °C and 5 % CO2 according to the manufacturer’s protocol. FLC-4 cells suspended in DMEM/Ham’s F12 medium supplemented with 10% heat-inactivated fetal bovine serum, 100 U/mL penicillin G, and 100 μg/mL streptomycin were seeded at a density of 8.0 × 10^5 cells/well and cultured for 3 days. The medium was replenished every 72 h, completely removed, and replaced with serum-free medium containing 1–10 µM iCDM-34 or vehicle (DMSO). Total RNA was isolated from cells and reverse transcribed complementary DNA was subjected to quantitative qPCR. mRNA expression was determined using TaqMan Gene Expression Assays (Hs00167927_m1 for CYP1A2, Hs00604506_m1 for CYP3A4, for Hs00426397_m1 for CYP2C9; Thermo Fisher Scientific, Waltham, MA, USA). Expression levels were determined using the 2^–ΔΔCt method and were normalized to endogenous GAPDH mRNA expression levels.

For `O=C(Nc1ccc(Br)cc1)c1ccn(Cn2cc([N+](=O)[O-])cn2)n1` [iCDM-34], the “suppression of HIF promoter” value [1] is listed as “suppress”, the half-life at 1 μM [2] is listed as 33.1 min and the remaining at 0.5 h, 1 μM ([2]; 1 μM substrate, 0.5 mg protein/mL, 30 min) is listed as 41.2 ± 0.4%. The remaining at 1 h, 1 μM ([2]; 1 μM substrate, 0.5 mg protein/mL, 60 min) was 21 ± 0.8%, the half-life [3] was 23 min and the HBeAg in medium (HBV genotype C) was “inhibited”. The HBsAg in medium (HBV genotype C) was “inhibited”, the phospho-SAMHD1 levels (phospho-SAMHD1) was “lower than pre-treatment levels” and the “phosphorylation of STAT1, STAT2, and STAT3” value (JAK/STAT signaling) was “not induced”. For the same molecule, the “expression of ADH1B, G6PC, ADH1A, TAT, SLC38A3, and SLC22A7” value (HBV-infected PXB cells) was “suppressed”, the “expression of CYP1A1, CYP1A2, CYP4A11, CYP1B1, AKR1B15, and AKR1B10” value (HBV-infected PXB cells) was “upregulated” and the “cytotoxicity (cell viability)” value (PXB cells) was “no cytotoxicity”. For the same molecule, the “inhibition of interaction between HBx and DNA binding protein 1” value [4] was “did not inhibit” and the “CYP1A2 mRNA expression” value (AhR signaling pathway) was “increased expression”.
